Source: US20090227600A1, “4-(PYRAZINE-2-YL) -PYRROLIDINE -2-CARBOXYLIC ACID COMPOUNDS AND DERIVATIVES THEREOF AS HEPATITIS C VIRUS INHIBITORS” (priority 2004, published 2009)
pIC50: −log10 of the molar value.

Target: T1, HCV RNA Polymerase, recombinant NS5B with C-terminal 21 amino acid deletion, genotype 1a strain H77 (Hepatitis C virus genotype 1a, UniProt P27958)
T1 construct: fused on or other part: C-terminal 6His-tag
Assay: In vitro HCV RNA-dependent RNA polymerase inhibition assay, genotype 1a C-terminally truncated (delta21) enzyme
Format: biochemical, HCV genotype 1a
Conditions: genotype 1a delta21 NS5B enzyme; read-out: IC50 in delta-21 1a enzyme inhibition assay
Excerpt: Incorporation of [^33P]-GMP into RNA was followed by absorption of the biotin labelled RNA polymer by streptavidin containing SPA beads. A synthetic template consisting of biotinylated 13mer-oligoG hybridised to polyrC was used as a homopolymer substrate.
a) Genotype 1a C-Terminally Truncated (delta21) Enzyme
HCV RNA Polymerase [Recombinant NS5B with C-terminal 21 amino acid deletion and C-terminal 6His-tag (Ferrari et al. J. Virol, 73(2), 1999, 1649. ‘Characterization of soluble hepatitis C virus RNA-dependent RNA polymerase expressed in Escherichia coli.’) expressed in E. coli and purified to homogeneity] was added to 25 nM final concentration. Polymerase of genotype 1a was from strain H77 (Yanagi, M., Purcell, R. H., Emerson, S. U. & Bukh, J. (1997), Proceedings of the National Academy of Sciences, USA 94, 8738-8743) containing a sequence change from valine to isoleucine at position 180.
Reaction Conditions were 25 nM enzyme, 1.5 μg/ml oligo-rG13/poly-rC and 0.2 μCi α-^33P-GTP in 0.5 μM GTP (20 Ci/mMol), 20 mM Tris pH 7.5, 23 mM NaCl, 3 mM DTT, 5 mM MgCl2, 1 mM MnCl2.
Enzyme was diluted to 500 nM concentration in 20 mM Tris-HCl, pH 7.5, 25 mM NaCl and 3 mM DTT.
4× concentrated assay buffer mix was prepared using 1M Tris-HCl, pH7.5 (1 mL), 5M NaCl (0.25 mL), 1M DTT (0.12 mL) and Water (8.63 mL), Total 10 mL.
2× concentrated first reagent was prepared using 4× concentrated assay buffer mix (5 μL), 40 u/μL RNasin (0.1 μL), 20 μg/mL polyrC/biotinylated-oligoG (1.6 μL), 500 nM enzyme (1 μL) and Water (2.3 μL), Total 10 μl/well.
2× concentrated second reagent was prepared using 1M MgCl2 (0.1 μL), 1M MnCl2 (0.02 μL), 25 μM GTP (0.4 μL), α-[^33P]-GTP (10 μCi/μL, 0.02 μL) and water (9.5 μL), Total 10 μL/well.
The assay was set up using compound (1 μL in 100% DMSO), first reagent (10 μL), and second reagent (10 μL), Total 21 μL.
The reaction was performed in a U-bottomed, white, 96-well plate. The reaction was mixed on a plate-shaker, after addition of the Enzyme, and incubated for 1 h at 22° C. After this time, the reaction was stopped by addition of 60 μL 1.5 mg/ml streptavidin SPA beads (Amersham) in 0.1 M EDTA in PBS. The beads were incubated with the reaction mixture for 1 h at 22° C. after which 100 μL 0.1 M EDTA in PBS was added. The plate was sealed, mixed centrifuged and incorporated radioactivity determined by counting in a Trilux (Wallac) or Topcount (Packard) Scintillation Counter.
After subtraction of background levels without enzyme, any reduction in the amount of radioactivity incorporated in the presence of a compound, compared to that in the absence, was taken as a measure of the level of inhibition. Ten concentrations of compounds were tested in three- or fivefold dilutions. From the counts per minute, percentage of inhibition at highest concentration tested or IC50s for the compounds were calculated using GraFit 3, GraFit 4 or GraFit 5 (Erithacus Software Ltd.) software packages or a data evaluation macro for Excel based on XLFit Software (IDBS).

T1 sequence (P27958 2421-3011 V2599I, form open): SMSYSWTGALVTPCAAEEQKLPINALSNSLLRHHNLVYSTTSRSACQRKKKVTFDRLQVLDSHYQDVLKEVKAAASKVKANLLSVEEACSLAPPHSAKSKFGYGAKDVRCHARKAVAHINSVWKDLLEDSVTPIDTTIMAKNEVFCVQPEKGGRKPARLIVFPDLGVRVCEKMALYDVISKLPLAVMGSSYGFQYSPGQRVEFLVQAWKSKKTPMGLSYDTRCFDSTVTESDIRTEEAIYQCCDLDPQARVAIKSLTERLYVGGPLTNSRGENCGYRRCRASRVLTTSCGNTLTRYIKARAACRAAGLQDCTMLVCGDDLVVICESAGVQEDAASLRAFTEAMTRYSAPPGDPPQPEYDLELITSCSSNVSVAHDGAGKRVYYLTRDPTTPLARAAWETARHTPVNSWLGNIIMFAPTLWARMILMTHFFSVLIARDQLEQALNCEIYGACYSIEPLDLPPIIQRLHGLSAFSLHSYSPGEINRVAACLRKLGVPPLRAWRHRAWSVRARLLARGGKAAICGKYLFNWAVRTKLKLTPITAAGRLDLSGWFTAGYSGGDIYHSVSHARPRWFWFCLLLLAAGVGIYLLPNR

With `COc1cc(C(=O)N2[C@@H](c3nccs3)[C@@H](c3cnccn3)C[C@@]2(Cc2ccsn2)C(=O)O)ccc1C(C)(C)C` (single isomer, unassigned; enantiomer a) [Example 8] the pIC50 was over 6.82.
